The values below are quoted from earlier work in US20070203140A1, “N-hydroxyguanidines as modulators of indoleamine 2,3-dioxygenase” (priority 2006, published 2007).

The test system of one data set is LLC tumors. Conditions: LLC tumors in C57B1/6 mice, versus placebo.
The test system of a further data set is P815 tumor. To be noted: pre-immunized immune-competent mice.

`Cn1cc(C[C@H](N)C(=O)O)c2ccccc21` [Example 1-MT, 1-methyl-tryptophan]: the formation of tumors entry with LLC tumors is given as “markedly delayed”. For the same compound, the growth of tumors entry in the data set with P815 tumor is recorded as “inhibited”.
